In ChEMBL document CHEMBL5050844 (2019):
pIC50, pKd: −log10 of the molar value.

Experiments:
[1] = Induction of anti-CD3/CD28 antibodies-stimulated human T cell activation at 4 uM assessed fold increase in CD25 expression measured by ELISA assay; assay type: functional, T cell line
[2] = Induction of anti-CD3/CD28 antibodies-stimulated human T cell activation at 4 uM assessed fold increase in IL-2 secretion measured by ELISA assay; assay type: functional, T cell line
[3] = Induction of anti-CD3 antibodies-stimulated human CD8+ T cell activation in immunocompetent mouse assessed fold increase in CD25 expression at 90 mg/kg, po administered twice a day; assay type: functional; further: reference of the scale not given here
[4] = Induction of anti-CD3/CD28 antibodies-stimulated human T cell activation at 0.3 uM assessed fold increase in IL-2 secretion measured by ELISA assay; assay type: functional, T cell line
[5] = Induction of anti-CD3 antibodies-stimulated human T cell activation at 1 uM assessed fold increase in CD25 expression measured by ELISA assay; assay type: functional, T cell line; further: reference of the scale not given here
[6] = Induction of anti-CD3/CD28 antibodies-stimulated human T cell activation at 1 uM assessed fold increase in IL-2 secretion measured by ELISA assay; assay type: functional, T cell line
[7] = Induction of anti-CD3 antibodies-stimulated human T cell activation at 8 uM assessed fold increase in CD25 expression measured by ELISA assay; assay type: functional, T cell line; further: reference of the scale not given here
[8] = Induction of anti-CD3/CD28 antibodies-stimulated human T cell activation at 0.3 uM assessed fold increase in CD25 expression measured by ELISA assay; assay type: functional, T cell line
[9] = Induction of anti-CD3 antibodies-stimulated human CD4+ T cell activation in immunocompetent mouse assessed fold increase in CD25 expression at 135 mg/kg, po administered twice a day; assay type: functional; further: reference of the scale not given here
[10] = Induction of anti-CD3 antibodies-stimulated human T cell activation at 8 uM assessed fold increase in IL-2 secretion measured by ELISA assay; assay type: functional, T cell line; further: reference of the scale not given here
[11] = target: T1, E3 ubiquitin-protein ligase CBL-B (Homo sapiens, UniProt Q13191); assay: Inhibition of N-terminal Avi-tagged human CBL-B (36 to 427 residues) incubated with 60 nM Src kinase for 1.5 hrs followed by incubation with fluorescently labeled UbcH5B-Ub for 1 hr and measured by TR-FRET assay; assay type: single protein
T1 sequence (Q13191 whole entry, the tested form may be a part): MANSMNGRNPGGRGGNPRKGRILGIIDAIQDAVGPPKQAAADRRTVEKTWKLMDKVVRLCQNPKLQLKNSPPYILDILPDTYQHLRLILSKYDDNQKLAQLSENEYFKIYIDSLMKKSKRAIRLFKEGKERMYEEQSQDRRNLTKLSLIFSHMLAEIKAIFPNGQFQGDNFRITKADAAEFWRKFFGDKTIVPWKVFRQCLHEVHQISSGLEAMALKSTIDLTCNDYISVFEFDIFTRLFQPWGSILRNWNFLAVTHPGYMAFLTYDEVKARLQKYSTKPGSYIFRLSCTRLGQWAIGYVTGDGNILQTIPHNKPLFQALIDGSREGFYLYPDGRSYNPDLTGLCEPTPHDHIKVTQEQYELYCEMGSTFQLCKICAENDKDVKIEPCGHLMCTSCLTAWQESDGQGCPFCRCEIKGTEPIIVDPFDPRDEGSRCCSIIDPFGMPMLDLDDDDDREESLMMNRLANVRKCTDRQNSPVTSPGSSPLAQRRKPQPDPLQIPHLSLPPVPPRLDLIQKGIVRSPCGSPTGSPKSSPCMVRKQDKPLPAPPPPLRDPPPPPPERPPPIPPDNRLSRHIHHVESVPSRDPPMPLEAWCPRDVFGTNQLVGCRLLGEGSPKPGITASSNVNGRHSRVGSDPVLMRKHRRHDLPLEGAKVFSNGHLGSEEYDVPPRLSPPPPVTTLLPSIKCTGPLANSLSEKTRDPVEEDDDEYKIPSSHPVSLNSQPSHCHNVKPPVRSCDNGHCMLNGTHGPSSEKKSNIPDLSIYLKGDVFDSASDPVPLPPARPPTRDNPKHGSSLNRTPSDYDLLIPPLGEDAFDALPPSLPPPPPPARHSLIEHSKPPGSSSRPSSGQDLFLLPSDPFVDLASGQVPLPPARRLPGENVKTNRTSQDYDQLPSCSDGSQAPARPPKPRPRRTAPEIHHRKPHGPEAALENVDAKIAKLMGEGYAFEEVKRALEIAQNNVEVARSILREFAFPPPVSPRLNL

[12] = Induction of anti-CD3/CD28 antibodies-stimulated human T cell activation at 1 uM assessed fold increase in CD25 expression measured by ELISA assay; assay type: functional, T cell line
[13] = Induction of anti-CD3 antibodies-stimulated human T cell activation at 1 uM assessed fold increase in IL-2 secretion measured by ELISA assay; assay type: functional, T cell line; further: reference of the scale not given here
[14] = Induction of activation of human CD56+ CD3- NK cells co-cultured with human K562 cells in 1:1 ratio and assessed as increase in TNF-alpha secretion at 0.625 uM measured by ELISA assay; assay type: functional, Natural killer cell
[15] = system: B cell; assay: Induction of anti-IgM-stimulated human CD20+ B cell activation at 10 to 1000 uM assessed as increase in CD69 expression measured as mean fluorescence intensity AUC by flow cytometry analysis; assay type: functional, cell-based; conditions: dose 10-1000 µM
[16] = Induction of anti-CD3/CD28 antibodies-stimulated human anergic T cell activation at 0.37 uM assessed fold increase in IFN-gamma secretion measured by ELISA assay; assay type: functional, T cell line
[17] = Induction of anti-CD3 antibodies-stimulated human exhausted T cell activation assessed fold increase in GM-CSF secretion measured by ELISA assay; assay type: functional, T cell line; further: reference of the scale not given here
[18] = Induction of anti-CD3 antibodies-stimulated human exhausted T cell activation assessed fold increase in IFN-gamma secretion measured by ELISA assay; assay type: functional, T cell line; further: reference of the scale not given here
[19] = Induction of allogenic human T cell activation at 3 uM assessed fold increase in cell proliferation; assay type: functional, T cell line
[20] = Induction of anti-CD3/CD28 antibodies-stimulated human anergic T cell activation at 1.11 uM assessed fold increase in IFN-gamma secretion measured by ELISA assay; assay type: functional, T cell line
[21] = Induction of activation of human CD56+ CD3- NK cells co-cultured with human K562 cells in 1:1 ratio and assessed as increase in IFN-gamma secretion at 0.625 uM measured by ELISA assay; assay type: functional, Natural killer cell
[22] = Induction of activation of human CD56+ CD3- NK cells co-cultured with human K562 cells in 1:1 ratio and assessed as increase in IFN-gamma secretion at 2.5 uM measured by ELISA assay; assay type: functional, Natural killer cell
[23] = Induction of anti-CD3/CD28 antibodies-stimulated human anergic T cell activation at 10 uM assessed fold increase in IFN-gamma secretion measured by ELISA assay; assay type: functional, T cell line
[24] = Induction of allogenic human T cell activation at 10 uM assessed fold increase in cell proliferation; assay type: functional, T cell line
[25] = Induction of activation of human CD56+ CD3- NK cells co-cultured with human K562 cells in 1:1 ratio and assessed as increase in TNF-alpha secretion at 2.5 uM measured by ELISA assay; assay type: functional, Natural killer cell
[26] = Induction of anti-CD3 antibodies-stimulated human exhausted T cell activation assessed fold increase in IL-2 secretion measured by ELISA assay; assay type: functional, T cell line; further: reference of the scale not given here
[27] = Induction of activation of human CD56+ CD3- NK cells co-cultured with human K562 cells in 1:1 ratio and assessed as increase in TNF-alpha secretion at 10 uM measured by ELISA assay; assay type: functional, Natural killer cell
[28] = Induction of activation of human CD56+ CD3- NK cells co-cultured with human K562 cells in 1:1 ratio and assessed as increase in IFN-gamma secretion at 10 uM measured by ELISA assay; assay type: functional, Natural killer cell
[29] = target: T1, E3 ubiquitin-protein ligase CBL-B; assay: Binding affinity towards N-terminal biotinylated Avi-tagged human CBL-B (36 to 427 residues) measured by surface plasmon resonance assay

SMILES	pIC50 [11]	fold change (FC) [3]	fold change (FC) [4]	fold change (FC) [5]	fold change (FC) [6]	fold change (FC) [8]	fold change (FC) [9]	fold change (FC) [12]	fold change (FC) [13]	also measured
C[C@H](c1cc2c(c(C(F)(F)F)c1)CN(c1cccc(C3(Cc4nncn4C)COC3)c1)C2=O)N1CCC(C)(F)CC1	> 7.00	1	>=7.5	>=1.001	>=7.5	>=1.76	>2.5	>=1.76	>=0.201	–
Cn1cnnc1[C@H](F)C1(c2cccc(N3Cc4c(cc(CN5CCC(F)CC5)cc4C(F)(F)F)C3=O)c2)COC1	> 7.00	1	>=7.5	>=1.001	>=7.5	>=1.76	1.51	>=1.76	>=0.201	pKd [29]: > 7.00
CN1CC2CCC(C1)N2c1cc2c(c(C(F)(F)F)c1)CN(c1cccc(C3(Cc4nncn4C)COC3)c1)C2=O	> 7.00	1	>=7.5	>=1.001	>=7.5	1.31	1	1.31	>=0.201	–

Second part, led by results:

pIC50 [11]	SMILES	fold change (FC) [3]	fold change (FC) [4]	fold change (FC) [5]	fold change (FC) [6]	fold change (FC) [8]	fold change (FC) [9]	fold change (FC) [12]	fold change (FC) [13]	also measured
> 7.00	Cn1cnnc1CC1(c2cccc(N3Cc4c(cc(CN5C[C@H]6C[C@H]6C5)cc4C(F)(F)F)C3=O)c2)COC1	1	>=7.5	>=1.001	>=7.5	1.31	1	1.31	>=0.201	fold change (FC) [1]: 1.51; fold change (FC) [2]: >=7.5; fold change (FC) [7]: >=1.001; fold change (FC) [10]: >=0.201
> 7.00	Cn1cnnc1C(F)(F)[C@](C)(F)c1cccc(N2Cc3c(cc(N4CCNCC4)cc3C(F)(F)F)C2=O)c1	–	2.51	>=1.001	>=7.5	1.31	–	1.51	>=0.201	fold change (FC) [14]: 2.01; AUC [15]: 0.5; fold change (FC) [16]: <=2.5; fold change (FC) [1]: 1.51; fold change (FC) [2]: >=7.5; fold change (FC) [17]: <=1.4; fold change (FC) [18]: 1.41; fold change (FC) [19]: <=2; fold change (FC) [20]: 2.51; fold change (FC) [21]: 1.01; fold change (FC) [22]: 2.01; fold change (FC) [23]: 2.51; fold change (FC) [7]: 0.801; fold change (FC) [24]: <=2; fold change (FC) [10]: 0.051; fold change (FC) [25]: 2.01; fold change (FC) [26]: >3.01; fold change (FC) [27]: 2.01; fold change (FC) [28]: 2.01
> 7.00	C[C@@H](c1cc2c(c(C(F)(F)F)c1)CN(c1cccc(C3(Cc4nncn4C)COC3)c1)C2=O)N1CC2CC2C1 (stereo partly specified)	1	>=7.5	>=1.001	>=7.5	1.31	1	1.31	>=0.201	–
> 7.00	Cn1cnnc1[C@@H](F)C1(c2cccc(N3Cc4c(cc(CN5CCC(F)CC5)cc4C(F)(F)F)C3=O)c2)COC1	1	5	>=1.001	>=7.5	1.51	2.01	1.51	>=0.201	pKd [29]: > 7.00
